# Patent US20100009970A1, “COMPOSITIONS AND METHODS FOR TREATMENT OF VIRAL DISEASES” (Combinatorx (Singapore) Pte. Ltd., priority 2008, published 2010)
# Tests used:
# in vitro = conditions: human, CC50 (uM) [SG]
# [1] = system: Huh7 cells expressing a subgenomic RNA replicon of Con1 (genotype 1b) sequence origin; experiment: microbe, parasite or virus in culture; conditions: Hepatitis C virus; for IC50: Huh-7, read-out: IC50 (uM) [SG]; for Emax: Huh-7, read-out: Max Effect@CC30 (inhibition); for IC90: Huh-7
SMILES,CC50 (in vitro) [µM],IC50 [1] [µM],Emax [1] [%],IC90 [1] [µM]
"CNC1CCC(c2cccc(OC)c2)c2ccccc21 (stereo not shown) [Sertraline B ring m-Methoxy, 4-(3-methoxyphenyl)-N-methyl-1,2,3,4-tetrahydronaphthalen-1-amine]",> 50,28.8,,
"CSc1ccc(Oc2ccc(CNS(C)(=O)=O)cc2CN(C)C)cc1C [Compound 17, N-(3-((dimethylamino)methyl)-4-(3-methyl-4-(methylthio)phenoxy)benzyl)methanesulfonamide]",> 50,22.7,,
CC(=O)N(C)c1ccc2c(c1)[C@@H](N(C)C)CC[C@H]2c1ccc(Cl)c(Cl)c1,14.6,3.79,91.7,
"CSc1ccc(Oc2ccc(S(=O)(=O)Nc3ccc(Br)cc3)cc2CN(C)C)cc1C [Compound 57, N-(4-bromophenyl)-3-((dimethylamino)methyl)-4-(3-methyl-4-(methylthio)phenoxy)benzenesulfonamide]",8.17,11,,
"CSc1ccc(Oc2ccc(S(N)(=O)=O)cc2CN(C)CCN(C)C)cc1C [Compound 97, 3-(((2-(dimethylamino)ethyl)(methyl)amino)methyl)-4-(3-methyl-4-(methylthio)phenoxy)benzenesulfonamide]",43.3,12.4,,14
"CSc1ccc(Oc2ccc(S(N)(=O)=O)cc2CN2CC[C@@H](N(C)C)C2)cc1C [Compound 100, (R)-3-((3-(dimethylamino)pyrrolidin-1-yl)methyl)-4-(3-methyl-4-(methylthio)phenoxy)benzenesulfonamide]",35.6,5.03,,10.6
"CSc1ccc(Oc2ccc(S(N)(=O)=O)cc2C=C(C)C)cc1C [Compound 86, 4-(3-methyl-4-(methylthio)phenoxy)-3-(2-methylprop-1-enyl)benzenesulfonamide]",> 50,34.8,,
"CNCc1cc(S(N)(=O)=O)ccc1Oc1ccc(SC)cc1 [Compound 43, 3-((methylamino)methyl)-4-(4-(methylthio)phenoxy)benzenesulfonamide]",> 50,32.7,73.7,
"CSc1ccc(Oc2ccc(Br)cc2CN(C)C)cc1 [Compound 41, 1-(5-bromo-2-(4-(methylthio)phenoxy)phenyl)-N,N-dimethylmethanamine]",> 50,25.8,94.7,28.8
"CSc1ccc(Oc2ccc(S(N)(=O)=O)cc2CN2CCN(C(C)C)CC2)cc1C [Compound 106, 3-((4-isopropylpiperazin-1-yl)methyl)-4-(3-methyl-4-(methylthio)phenoxy)benzenesulfonamide]",24.3,3.57,,8.21
"CSc1ccc(N2CN(C)Cc3cc(Br)ccc32)cc1C [Compound 78, 6-bromo-3-methyl-1-(3-methyl-4-(methylthio)phenyl)-1,2,3,4-tetrahydroquinazoline]",24.9,13.7,,15.5
"CSc1ccc(Oc2ccc(S(N)(=O)=O)cc2CN2CCNCC2)cc1C [Compound 111, 4-(3-methyl-4-(methylthio)phenoxy)-3-(piperazin-1-ylmethyl)benzenesulfonamide]",46.3,7.12,,22.6
"CSc1ccc(Oc2ccc(S(=O)(=O)NC3CC3)cc2CN(C)C)cc1C [Compound 13, N-cyclopropyl-3-((dimethylamino)methyl)-4-(3-methyl-4-(methylthio)phenoxy)benzenesulfonamide]",41.8,25.5,,
"CSc1ccc(Oc2cc(Br)ccc2CN(C)C)cc1C [Compound 60, 1-(4-bromo-2-(3-methyl-4-(methylthio)phenoxy)phenyl)-N,N-dimethylmethanamine]",28.7,12.6,,
"Cc1cc(Oc2ccc(S(N)(=O)=O)cc2CN(C)C)ccc1Br [Compound 61, 4-(4-bromo-3-methylphenoxy)-3-((dimethylamino)methyl)benzenesulfonamide]",> 50,12.1,,
"CNCc1cc(S(N)(=O)=O)ccc1Oc1ccc([N+](=O)[O-])c(C)c1 [Compound 76, 4-(3-methyl-4-nitrophenoxy)-3-((methylamino)methyl)benzenesulfonamide]",> 50,31,,
"CSc1ccc(Oc2ccc(S(N)(=O)=O)cc2CN2CCN(C3CCN(C)CC3)CC2)cc1C [Compound 90, 4-(3-methyl-4-(methylthio)phenoxy)-3-((4-(1-methylpiperidin-4-yl)piperazin-1-yl)methyl)benzenesulfonamide]",9.1,2.03,,7.48
"COc1ccc(NS(=O)(=O)c2ccc(Oc3ccc(SC)c(C)c3)c(CN(C)C)c2)cc1 [Compound 59, 3-((dimethylamino)methyl)-N-(4-methoxyphenyl)-4-(3-methyl-4-(methylthio)phenoxy)benzenesulfonamide]",8.32,6.39,,

SMILES,CC50 (in vitro) [µM],IC50 [1] [µM],Emax [1] [%],IC90 [1] [µM]
"CSc1ccc(Oc2ccc(S(N)(=O)=O)cc2CN2CC[C@H](F)C2)cc1C [Compound 85, (S)-3-((3-fluoropyrrolidin-1-yl)methyl)-4-(3-methyl-4-(methylthio)phenoxy)benzenesulfonamide]",> 50,7.22,,
"CC(C)C1CCC(c2ccc(Cl)c(Cl)c2)c2ccccc21 (stereo not shown) [Isopropyl Sertraline, 1-(3,4-dichlorophenyl)-4-isopropyl-1,2,3,4-tetrahydronaphthalene]",> 50,9.25 ± 0.95,97.96 ± 0.06,32.1
"CSc1ccc(Oc2ccc(S(N)(=O)=O)cc2CN2CCC[C@H]2CO)cc1C [Compound 103, (S)-3-((2-(hydroxymethyl)pyrrolidin-1-yl)methyl)-4-(3-methyl-4-(methylthio)phenoxy)benzenesulfonamide]",> 50,6.88,,17.6
"CN(CCO)[C@H]1CC[C@@H](c2ccc(Cl)c(Cl)c2)c2ccc(C[S+](C)[O-])cc21 (stereo partly drawn) [2-(((1S,4S)-4-(3,4-dichlorophenyl)-7-(methylsulfinylmethyl)-1,2,3,4-tetrahydronaphthalen-1-yl)(methyl)amino)ethanol]",> 50,24.2,,
"CSc1ccc(Oc2cc(C#N)ccc2CN(C)C)cc1C [Compound 64, 4-((dimethylamino)methyl)-3-(3-methyl-4-(methylthio)phenoxy)benzonitrile]",> 50,22.5,,
"CN[C@H]1CC[C@@H](c2ccc(Cl)c(Cl)c2)c2ccc(C(N)=O)cc21 [Sertraline A ring carboxamide, (5S,8S)-5-(3,4-dichlorophenyl)-8-(methylamino)-5,6,7,8-tetrahydronaphthalene-2-carboxamide]",16.2,1.8,,
"CSc1ccc(Oc2ccccc2CN(C)C)cc1C [Compound 8, N,N-dimethyl-1-(2-(3-methyl-4-(methylthio)phenoxy)phenyl)methanamine]",36,12.2,52.3,
"CSc1ccc(Oc2ccc(S(N)(=O)=O)cc2CNC[C@H](C)O)cc1C [Compound 69, (S)-3-((2-hydroxypropylamino)methyl)-4-(3-methyl-4-(methylthio)phenoxy)benzenesulfonamide]",> 50,3.54,,10.4
"CSc1ccc(Oc2ccc(S(N)(=O)=O)cc2CN2CC[C@H](O)C2)cc1C [Compound 66, (S)-3-((3-hydroxypyrrolidin-1-yl)methyl)-4-(3-methyl-4-(methylthio)phenoxy)benzenesulfonamide]",> 50,2.43,,6.78
"CN(C)[C@H]1CC[C@@H](c2ccc(Cl)c(Cl)c2)c2ccc(C(=O)NCC3CC3)cc21 [(5S,8S)—N-(cyclopropylmethyl)-5-(3,4-dichlorophenyl)-8-(dimethylamino)-5,6,7,8-tetrahydronaphthalene-2-carboxamide]",19.4,5.61,,12.2
"CCCCNS(=O)(=O)c1ccc(Oc2ccc(SC)c(C)c2)c(CN(C)C)c1 [Compound 12, N-butyl-3-((dimethylamino)methyl)-4-(3-methyl-4-(methylthio)phenoxy)benzenesulfonamide]",18.4,13.4,,
"CNCc1ccccc1Oc1ccc(SC)c(C)c1 [Compound 30, N-methyl-1-(2-(3-methyl-4-(methylthio)phenoxy)phenyl)methanamine]",26.4,13.2,26,
"CC(=O)Nc1ccc2c(c1)C(C(C)C)CCC2c1ccc(Cl)c(Cl)c1 (stereo not shown) [N-(5-(3,4-dichlorophenyl)-8-isopropyl-5,6,7,8-tetrahydronaphthalen-2-yl)acetamide]",> 50,15.8,,37.7
"CSc1ccc(Oc2ccc(N(C)C)cc2CN(C)C)cc1C [Compound 15, 3-((dimethylamino)methyl)-N,N-dimethyl-4-(3-methyl-4-(methylthio)phenoxy)aniline]",38.7,23,,
"CN[C@H]1CC[C@@H](c2ccc(Cl)c(Cl)c2)c2ccc(C(=O)NC3CC3)cc21 [(5S,8S)—N-cyclopropyl-5-(3,4-dichlorophenyl)-8-(methylamino)-5,6,7,8-tetrahydronaphthalene-2-carboxamide]",8.87,2.75,88,
"OC1CC[C@@H](c2ccc(Cl)c(Cl)c2)c2ccccc21 (stereo partly drawn) [Alcohol Sertraline-P1, (S)-4-(3,4-dichlorophenyl)-1,2,3,4-tetrahydronaphthalen-1-ol]",> 50,24.5,89.2,
"CSc1ccc(Oc2ccc(S(N)(=O)=O)cc2CN2C[C@@H](O)C[C@@H]2CO)cc1C [Compound 110, 3-(((2S,4R)-4-hydroxy-2-(hydroxymethyl)pyrrolidin-1-yl)methyl)-4-((3-methyl-4-methylthio)phenoxy)benzenesulfonamide]",> 50,13.1,,
